For orientation: IC50 means the midpoint of a concentration-inhibition curve. The low end stands for inhibition by little substance, the high end for a need for much substance.

The text below walks through data of US10703746B2, “Mutant IDH1 inhibitors useful for treating cancer” (THE UNITED STATES OF AMERICA, AS REPRESENTED BY THE …, priority 2014, dated 2020).

For one experiment, the target named is IDH1 R132H (Homo sapiens, UniProt O75874, R132H). The experiment is described as follows: IDH1 R132H enzymatic assay (NADPH depletion coupled to diaphorase/resazurin). The format is biochemical. Conditions: enzymatic inhibition, IDH1 R132H. Background: Resazurin is reduced to fluorescent resorufin, in cell work by metabolically active cells.
Another experiment addresses IDH1 R132C (Homo sapiens, UniProt O75874, R132C). Description: IDH1 R132C enzymatic assay (NADPH depletion coupled to diaphorase/resazurin). The format is biochemical. The conditions noted are these: enzymatic inhibition, IDH1 R132C. An outline of the steps: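 NADPH depletion, read via diaphorase/resazurin coupling, after adding substrate at 0.6 mM α-KG and 0.012 mM NADPH. Beforehand, 0.00032 mg/mL enzyme sat with compound 30 min at room temperature in pH 6.5 potassium phosphate buffer with MgCl2, glycerol and BSA.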

A value given as a limit tells only on which side of the number the result lay.

Sequence of IDH1 R132H (O75874 whole entry R132H): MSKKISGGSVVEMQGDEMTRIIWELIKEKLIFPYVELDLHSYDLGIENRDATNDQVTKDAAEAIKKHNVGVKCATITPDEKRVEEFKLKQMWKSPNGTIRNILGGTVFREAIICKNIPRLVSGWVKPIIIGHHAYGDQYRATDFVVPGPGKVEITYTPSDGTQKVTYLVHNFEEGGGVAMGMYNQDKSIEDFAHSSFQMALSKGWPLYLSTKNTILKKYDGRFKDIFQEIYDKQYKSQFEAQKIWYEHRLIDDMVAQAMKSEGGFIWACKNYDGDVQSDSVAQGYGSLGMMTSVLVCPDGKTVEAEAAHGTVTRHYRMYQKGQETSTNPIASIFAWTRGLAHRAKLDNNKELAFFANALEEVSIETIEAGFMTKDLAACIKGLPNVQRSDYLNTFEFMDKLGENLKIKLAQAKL
Sequence of IDH1 R132C (O75874 whole entry R132C): as the sequence (O75874 whole entry R132H) above, with H132C counted along it

With `CCc1cccc(CC)c1-n1c(CC(C)C)c(C(=O)N2CCNCC2)cc(-c2nc(/C=C/c3ccc(Cl)cc3)c(C)s2)c1=O` [Compound 555], the IC50 on IDH1 R132H was in the range of 1000 to 5000 nM; on IDH1 R132C, 300 to 1000 nM.

As for `COc1cccc(F)c1-n1c(C=C(C)C)c(C(=O)N2CCNCC2)cc(-c2nc(-c3ccc(Cl)cc3)cs2)c1=O` [Compound 556], the IC50 on IDH1 R132H and at IDH1 R132C was less than 300 nM in each case.

On to `COc1cc(F)ccc1-n1c2c(cc(-c3nc(-c4ccc(Cl)cc4)cs3)c1=O)C(=O)CC(C)(C)C2` [Compound 557], for which the IC50 against IDH1 R132H and at IDH1 R132C was 1000 to 5000 nM each time.

`C#Cc1ccccc1-n1c(C=C(C)C)c(C(=O)N2CCNCC2)cc(-c2nc(-c3ccc(Cl)cc3)cs2)c1=O` [Compound 558]: the IC50 on IDH1 R132H and on IDH1 R132C was less than 300 nM each time.

In the case of `CCc1cccc(CC)c1-n1c(C=C(C)C)c(C(=O)N2CCNCC2)cc(-c2nc(-c3ccc(C(F)F)cn3)cs2)c1=O` [Compound 559], the IC50 against IDH1 R132H and against IDH1 R132C was less than 300 nM in each case.

As for `CCOC(=O)c1ncsc1-n1c2c(cc(-c3nc(-c4ccc(Cl)cc4)cs3)c1=O)C(=O)CC(C)(C)C2` [Compound 561], the IC50 against IDH1 R132H and against IDH1 R132C was 1000 to 5000 nM each time.

In the case of `CCOc1ncc(C)cc1-n1c(C=C(C)C)c(C(=O)N2CCNCC2)cc(-c2nc(-c3ccc(C(F)F)cc3)cs2)c1=O` [Compound 562], the IC50 on IDH1 R132H and at IDH1 R132C was less than 300 nM each time.

For the compound `Cc1ccc(CN2CCN(C)CC2)cc1-n1c2c(cc(-c3nc(-c4ccc(Cl)cc4)cs3)c1=O)C(=O)CCC2` [Compound 563], the IC50 on IDH1 R132H and on IDH1 R132C was more than 20000 nM each time.

Regarding `O=C1CCCc2c1cc(-c1nc(-c3ccc(Cl)cc3)cs1)c(=O)n2-c1cccc(CO)c1` [Compound 565], the IC50 on IDH1 R132H and on IDH1 R132C was 5000 to 20000 nM throughout.

Take `COc1cccc(-n2c3c(cc(-c4nc(-c5ccc(Cl)cc5)cs4)c2=O)C(=O)CC(C)(C)C3)c1OC` [Compound 567]: the IC50 at IDH1 R132H and against IDH1 R132C was 1000 to 5000 nM throughout.

Regarding `CCOc1ncc(F)cc1-n1c(C=C(C)C)c(C(=O)N2CCNCC2)cc(-c2nc(-c3ccc(C(F)(F)F)cc3)cs2)c1=O` [Compound 568], the IC50 at IDH1 R132H and against IDH1 R132C was less than 300 nM each time.

With `CCc1cccc(CC)c1-n1c(C=C(C)C)c(C(=O)N2CCNCC2CC)cc(-c2nc(-c3ccc(Cl)cc3)cs2)c1=O` (centres unmarked) [Compound 569], the IC50 against IDH1 R132H and at IDH1 R132C was less than 300 nM in each case.

Regarding `CN1CCN(Cc2cccc(-n3c4c(cc(-c5nc(-c6ccc(Cl)cc6)cs5)c3=O)C(=O)CCC4)c2)CC1` [Compound 570], the IC50 on IDH1 R132H and at IDH1 R132C was more than 20000 nM in each case.

Consider `CCc1ccc(Cl)cc1-n1c(C=C(C)C)c(C(=O)N2CCNCC2)cc(-c2nc(-c3ccc(C(F)F)cc3)cs2)c1=O` [Compound 571], for which the IC50 against IDH1 R132H and at IDH1 R132C was less than 300 nM throughout.

Regarding `CCOc1ccccc1-n1c(C=C(C)C)c(C(=O)N2CCNCC2)cc(-c2nc(-c3ccc(Cl)cc3)cs2)c1=O` [Compound 572], the IC50 at IDH1 R132H and against IDH1 R132C was less than 300 nM throughout.

As to `CCc1cccc(CC)c1-n1c(CC(C)C)c(C(=O)N2CCNCC2)cc(-c2nc(-c3ccc(Cl)cc3OC)c(C)s2)c1=O` [Compound 573], the IC50 against IDH1 R132H and against IDH1 R132C was 300 to 1000 nM throughout.

As to `CCOc1ncc(Cl)cc1-n1c(C=C(C)C)c(C(=O)N2CCNCC2)cc(-c2nc(-c3ccc(Cl)cc3)cs2)c1=O` [Compound 575], the IC50 against IDH1 R132H and against IDH1 R132C was less than 300 nM throughout.

Take `CCc1ccc(Cl)cc1-n1c(C=C(C)C)c(C(=O)N2CCNCC2)cc(-c2nc(-c3ccc(C(F)(F)F)cc3)cs2)c1=O` [Compound 576]: the IC50 on IDH1 R132H and against IDH1 R132C was less than 300 nM throughout.

With `CCc1cccc(CC)c1-n1c(C=C(C)C)c(C(=O)N2CCN[C@@H](C(=O)O)C2)cc(-c2nc(-c3ccc(C(F)(F)F)cc3)cs2)c1=O` [Compound 577], the IC50 against IDH1 R132H and at IDH1 R132C was less than 300 nM each time.

For the compound `CCOc1cccc(CC)c1-n1c(C=C(C)C)c(C(=O)N2CCNCC2)cc(-c2nc(-c3ccc(Cl)cc3)cs2)c1=O` [Compound 578], the IC50 on IDH1 R132H and against IDH1 R132C was less than 300 nM each time.

For `COc1cc(Cl)ccc1-n1c2c(cc(-c3nc(-c4ccc(Cl)cc4)cs3)c1=O)C(=O)CC(C)(C)C2` [Compound 579], the IC50 against IDH1 R132H and at IDH1 R132C was 5000 to 20000 nM in each case.

Take `CCOc1ncc(Cl)cc1-n1c(C=C(C)C)c(C(=O)N2CCNCC2)cc(-c2nc(-c3ccc(C(F)F)nc3)cs2)c1=O` [Compound 580]: the figures for the IC50 against IDH1 R132H and on IDH1 R132C were less than 300 nM and 300 to 1000 nM, respectively.

`CCc1cccc(CC)c1-n1c(C=C(C)C)c(C(=O)N2CCNCC2)cc(-c2nc(-c3ccc(C(F)(F)F)cc3)cs2)c1=O` [Compound 581, 1-(2,6-diethylphenyl)-6-(2-methylprop-1-en-1-yl)-5-(piperazine-1-carbonyl)-3-(4-(4-(trifluoromethyl)phenyl)thiazol-2-yl)pyridin-2(1H)-one]: the IC50 against IDH1 R132H and against IDH1 R132C was less than 300 nM each time.

On to `CCc1ccc(F)cc1-n1c(C=C(C)C)c(C(=O)N2CCNCC2)cc(-c2nc(-c3ccc(C(F)(F)F)cc3)cs2)c1=O` [Compound 583], for which the IC50 against IDH1 R132H and against IDH1 R132C was less than 300 nM throughout.

`COCc1ncc(Cl)cc1-n1c(C=C(C)C)c(C(=O)N2CCNCC2)cc(-c2nc(-c3ccc(C(F)(F)F)cc3)cs2)c1=O` [Compound 586]: the 50% inhibitory concentration (IC50) against IDH1 R132H and against IDH1 R132C was less than 300 nM throughout.

Regarding `CCOc1ncc(C)cc1-n1c(C=C(C)C)c(C(=O)N2CCNCC2)cc(-c2nc(-c3ccc(C(F)(F)F)cc3)cs2)c1=O` [Compound 587], the IC50 against IDH1 R132H and against IDH1 R132C was less than 300 nM in each case.

Consider `CC(C)=Cc1c(C(=O)N2CCNCC2)cc(-c2nc(-c3ccc(Cl)cc3)cs2)c(=O)n1-c1ccccc1OCC(F)(F)F` [Compound 589], for which the IC50 against IDH1 R132H and at IDH1 R132C was less than 300 nM throughout.

As to `O=C1CCCc2c1cc(-c1nc(-c3ccc(Cl)cc3)cs1)c(=O)n2-c1ccccc1CCO` [Compound 590], the half-inhibitory concentration (IC50) against IDH1 R132H and on IDH1 R132C was 5000 to 20000 nM throughout.

As to `CCc1cccc(CC)c1-n1c(C=C(C)C)c(C(=O)N2CCNC(C(=O)O)C2)cc(-c2nc(-c3ccc(Cl)cc3)cs2)c1=O` (centres unmarked) [Compound 591], the IC50 on IDH1 R132H and against IDH1 R132C was less than 300 nM throughout.

For `CCOc1ncc(C)cc1-n1c(C=C(C)C)c(C(=O)N2CCNCC2)cc(-c2nc(-c3ccc(C(F)F)cn3)cs2)c1=O` [Compound 592], the IC50 on IDH1 R132H was in the range of 300 to 1000 nM; at IDH1 R132C it was 1000 to 5000 nM.

As for `CCc1cccc(CC)c1-n1c(C=C(C)C)c(C(=O)N2CCNC(=O)C2)cc(-c2ccn(-c3ccc(Cl)cc3)n2)c1=O` [Compound 593], the IC50 against IDH1 R132H and at IDH1 R132C was less than 300 nM each time.

For `Cc1ccc(-n2c3c(cc(-c4nc(-c5ccc(Cl)cc5)cs4)c2=O)C(=O)CC(C)(C)C3)c(Cl)c1` [Compound 594], the values for the IC50 against IDH1 R132H and at IDH1 R132C were more than 20000 nM and 1000 to 5000 nM, respectively.

With `Cc1[nH]c(=O)c(-c2nc(-c3ccc(Cl)cc3)cs2)cc1C(=O)N1CCNCC1` [Compound 595], the IC50 at IDH1 R132H and on IDH1 R132C was more than 20000 nM throughout.

For `CCc1ccccc1-n1c(C=C(C)C)c(C(=O)N2CCNCC2)cc(-c2nc(-c3ccc(Cl)cc3)cs2)c1=O` [Compound 596], the IC50 at IDH1 R132H and at IDH1 R132C was less than 300 nM throughout.
